In patent publication EP4603105A1, “PHARMACEUTICAL COMPOSITION CONTAINING CYCLIC COMPOUND HAVING SELECTIVE KRAS INHIBITORY EFFECT AGAINST HRAS AND NRAS” (CHUGAI SEIYAKU KABUSHIKI KAISHA, priority 2022, dated 2024):
Where a SMILES comes first, the peptide text is derived from it. Bridges are numbered along the chain shown (N, C = ends). [ ]: non-standard residue; d: D form. The star is where a group is joined. hPhe(3-Cl-4-CF3) = N[C@@H](CCc1ccc(C(F)(F)F)c(Cl)c1)C(=O)O; NPrPhe(4-CF3) = CCCN[C@@H](Cc1ccc(C(F)(F)F)cc1)C(=O)O; Piperazinyl(4-(3-oxetanyl)) = C1OCC1N1CCN(*)CC1; NMeAbu(4,4,4-F3) = CN[C@@H](CC(F)(F)F)C(=O)O; NMeGly(cPent) = CN[C@H](C(=O)O)C1CCCC1; Pro(4,4-F2) = O=C(O)[C@@H]1CC(F)(F)CN1; NMeD = CN[C@@H](CC(=O)O)C(=O)O; NMeL = CN[C@@H](CC(C)C)C(=O)O; Morpholide = C1CN(*)CCO1; NMeA = CN[C@@H](C)C(=O)O; Ac5c = NC1(C(=O)O)CCCC1; Aze = O=C(O)[C@@H]1CCN1; NEtG = CCNCC(=O)O; Sar = CNCC(=O)O

Assays:
[1] = target: GDP-bound NRAS wild-type protein (Homo sapiens, UniProt P01111); assay: Binding to NRAS by surface plasmon resonance (SPR), KD and KD ratio to KRAS
Chain of GDP-bound NRAS wild-type protein (P01111 whole entry): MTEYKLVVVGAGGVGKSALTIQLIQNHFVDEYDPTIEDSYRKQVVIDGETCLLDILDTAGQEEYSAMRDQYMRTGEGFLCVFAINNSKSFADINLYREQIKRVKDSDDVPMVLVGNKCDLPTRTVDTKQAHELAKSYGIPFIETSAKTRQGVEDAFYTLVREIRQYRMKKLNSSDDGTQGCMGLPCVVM
How it was run: (§1)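 Biotinylated GDP-bound RAS was captured at about 100–300 RU. Running buffer: HBS pH 7.4, 10 mM MgCl2, 10 µM GDP, 1 mM DTT, 0.01% Tween 20, 4% DMSO.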

[2] = tested on: human lung cancer strain NCI-H441; type: cell-based
How it was run: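 Step one: dispense the test compound in serial DMSO dilutions. Step three: add the reagent and measure […].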

HRAS wild-type protein = HRAS wild-type protein (Homo sapiens, UniProt P01112); assay: Binding to HRAS by surface plasmon resonance (SPR), KD and KD ratio to KRAS
Chain of HRAS wild-type protein (P01112 whole entry): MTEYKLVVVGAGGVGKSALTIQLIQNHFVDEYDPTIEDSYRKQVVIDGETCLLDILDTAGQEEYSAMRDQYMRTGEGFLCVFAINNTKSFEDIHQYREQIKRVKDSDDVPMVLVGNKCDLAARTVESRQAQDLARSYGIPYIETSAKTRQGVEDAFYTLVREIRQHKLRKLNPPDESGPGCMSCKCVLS
How it was run: as §1

[3] = ratio of KD value for GDP-bound NRAS wild-type protein to KD value for KRAS (SPR)
[4] = ratio of KD value for HRAS wild-type protein to KD value for KRAS (SPR)
[5] = ratio of the KD value with respect to GDP-bound NRAS wild-type protein to the KD value with respect to KRAS
[6] = ratio of the KD value with respect to HRAS wild-type protein to the KD value with respect to KRAS
[7] = ratio of KD for GDP-bound NRAS wild-type protein to KD for KRAS
[8] = ratio of KD for HRAS wild-type protein to KD for KRAS

Compound	IC50 [2] [nM]	NRAS /KRAS [1, 3]	HRAS /KRAS (HRAS wild-type protein; [4])	NRAS /KRAS [1, 5]	HRAS /KRAS (HRAS wild-type protein; [6])	NRAS /KRAS [1, 7]	HRAS /KRAS (HRAS wild-type protein; [8])
CCCN1C(=O)[C@@H]2CCN2C(=O)[C@H](C)N(C)C(=O)[C@H]([C@@H](C)CC)NC(=O)[C@H](CC(F)(F)F)N(C)C(=O)C[C@@H](C(=O)N2CCOCC2)N(C)C(=O)[C@H](C2CCCC2)N(C)C(=O)C2(CCCC2)NC(=O)[C@@H]2CC(F)(F)CN2C(=O)[C@H](CCc2ccc(C(F)(F)F)c(Cl)c2)NC(=O)CN(C)C(=O)[C@@H]1Cc1ccc(C(F)(F)F)cc1 [PP0203] ([NMeAbu(4,4,4-F3)]I[NMeA][Aze][NPrPhe(4-CF3)][Sar][hPhe(3-Cl-4-CF3)][Pro(4,4-F2)][Ac5c][NMeGly(cPent)][NMeD]-Morpholide; lactam N-11)	2.8					C (A compound having a KD ratio of 0.1 or more and less than 3 is denoted as C)	C (A compound having a KD ratio of 0.1 or more and less than 3 is denoted as C)
CCC[C@H]1C(=O)N[C@@H]([C@@H](C)CC)C(=O)N(C)CC(=O)N(C)[C@H]2C/C=C\CCN(C2=O)[C@@H](Cc2ccc(C(F)(F)F)cc2)C(=O)N(C)CC(=O)N[C@@H](CCc2ccc(C(F)(F)F)c(Cl)c2)C(=O)N2CCCC[C@H]2C(=O)NC2(CC(C)(C)C2)C(=O)N(C)[C@@H](C(CC)CC)C(=O)N(C)[C@H](C(=O)N(C)C)CC(=O)N1C [PP2928]	168					AA (a compound having 20 or more is denoted as AA)	A (a compound having 10 or more and less than 20 is denoted as A)
CC[C@H](C)[C@@H]1NC(=O)[C@H](CC2CCC2)N(C)C(=O)C[C@@H](C(=O)N(C)C)N(C)C(=O)[C@H](C2CCCC2)N(C)C(=O)C2(CC(C)(C)C2)NC(=O)[C@@H]2C[C@H](C)CN2C(=O)[C@H](CCc2cc(F)c(C(F)(F)F)c(F)c2)NC(=O)CN(C)C(=O)[C@H](Cc2ccc(C(F)(F)F)cc2)N2CC/C=C\C[C@@H](C2=O)N(C)C(=O)CN(C)C1=O [PP1684]	7.7	A (a compound having 10 or more and less than 20 is denoted as A)	A (a compound having 10 or more and less than 20 is denoted as A)				
CCO[C@@H]1C[C@H]2C(=O)NC3(CCC3)C(=O)N(C)[C@@H](C3CCCC3)C(=O)N(C)[C@H](C(=O)N(C)C)CC(=O)N(C)[C@@H](Cc3cccs3)C(=O)N[C@@H]([C@@H](C)CC)C(=O)N(C)CC(=O)N(C)[C@H]3C/C=C\CCN(C3=O)[C@@H](Cc3ccc(C(F)(F)F)cc3)C(=O)N(C)CC(=O)N[C@@H](CCc3cc(F)c(C(F)(F)F)c(F)c3)C(=O)N2C1 [PP1123]	13.4					A (a compound having 10 or more and less than 20 is denoted as A)	B (a compound having 3 or more and less than 10 is denoted as B)
CCC[C@H]1C(=O)N[C@@H]([C@@H](C)CC)C(=O)N(C)CC(=O)N(C)[C@H]2C/C=C\CCN(C2=O)[C@@H](Cc2ccc(C)cc2)C(=O)N(C)CC(=O)N[C@@H](CCc2ccc3sc(F)c(C)c3c2)C(=O)N2C[C@H](OCC)C[C@H]2C(=O)NC2(CC(C)(C)C2)C(=O)N(C)[C@@H](C2CCCC2)C(=O)N(C)[C@H](C(=O)N(C)C)CC(=O)N1C [PP2949]	3.5					A (a compound having 10 or more and less than 20 is denoted as A)	A (a compound having 10 or more and less than 20 is denoted as A)
CCO[C@@H]1C[C@H]2C(=O)NC3(CCC3)C(=O)N(C)[C@@H](CC(F)F)C(=O)N(C)[C@H](C(=O)N3CCOCC3)CC(=O)N(C)[C@@H](CC(C)C)C(=O)N[C@@H]([C@@H](C)CC)C(=O)N(C)CC(=O)N(C)[C@H]3CCCCCN(C3=O)[C@@H](Cc3ccc(C(F)(F)F)cc3)C(=O)N(C)CC(=O)N[C@@H](CCc3cc(F)c(C(F)(F)F)c(F)c3)C(=O)N2C1 [PP0822]	1990					B (a compound having 3 or more and less than 10 is denoted as B)	B (a compound having 3 or more and less than 10 is denoted as B)
CCCN1C(=O)CN(CC)C(=O)CNC(=O)[C@H]([C@@H](C)CC)NC(=O)[C@H](CC(C)C)N(C)C(=O)C[C@@H](C(=O)N2CCOCC2)N(C)C(=O)[C@H](C2CCCC2)N(C)C(=O)C2(CCCC2)NC(=O)[C@@H]2CCCN2C(=O)[C@H](CCc2ccc(C(F)(F)F)c(Cl)c2)NC(=O)CN(C)C(=O)[C@@H]1Cc1ccc(C(F)(F)F)cc1 [PP1968] ([NMeL]IG[NEtG][NPrPhe(4-CF3)][Sar][hPhe(3-Cl-4-CF3)]P[Ac5c][NMeGly(cPent)][NMeD]-Morpholide; lactam N-11)	13.5			C (A compound having a KD ratio of 0.1 or more and less than 3 is denoted as C)	C (A compound having a KD ratio of 0.1 or more and less than 3 is denoted as C)		

Further molecules by falling IC50 [2], results first:

IC50 [2] [nM]	Compound	NRAS /KRAS [1, 3]	HRAS /KRAS (HRAS wild-type protein; [4])	NRAS /KRAS [1, 5]	HRAS /KRAS (HRAS wild-type protein; [6])	NRAS /KRAS [1, 7]	HRAS /KRAS (HRAS wild-type protein; [8])
20.2	CCCN(C)C(=O)[C@@H]1CC(=O)N(C)[C@@H](C2CC2)C(=O)N[C@@H]([C@@H](C)CC)C(=O)N(C)CC(=O)N(C)[C@H]2C/C=C\CCN(C2=O)[C@@H](Cc2ccc(C(F)(F)F)cc2)C(=O)N(C)CC(=O)N[C@@H](CCc2ccc(C(F)(F)F)c(OC)c2)C(=O)N2C[C@H](OCC)C[C@H]2C(=O)NC2(CC(C)(C)C2)C(=O)N(C)[C@@H](C2CCCC2)C(=O)N1C [PP1983]			AA (a compound having 20 or more is denoted as AA)	A (a compound having 10 or more and less than 20 is denoted as A)		
12.4	CC[C@H](C)[C@@H]1NC(=O)[C@H](CC)N(C)C(=O)C[C@@H](C(=O)N(C)CC)N(C)C(=O)[C@H](C2CCCC2)N(C)C(=O)C2(CC(C)(C)C2)NC(=O)[C@@H]2C[C@@H](C)CN2C(=O)[C@H](CCc2ccc(C(F)(F)F)c(OC)c2)NC(=O)CN(C)C(=O)[C@H](Cc2ccc(C)cc2)N2CC/C=C\C[C@@H](C2=O)N(C)C(=O)CN(C)C1=O [PP1870]	A (a compound having 10 or more and less than 20 is denoted as A)	A (a compound having 10 or more and less than 20 is denoted as A)				
6.6	CCCN1C(=O)CN(C)C(=O)CN(C)C(=O)[C@H]([C@@H](C)CC)NC(=O)[C@H](CC(C)C)N(C)C(=O)C[C@@H](C(=O)N2CCN(C3COC3)CC2)N(C)C(=O)[C@H](C2CCCC2)N(C)C(=O)C2(CCCC2)NC(=O)[C@@H]2CCCN2C(=O)[C@H](CCc2ccc(C(F)(F)F)c(Cl)c2)NC(=O)CN(C)C(=O)[C@@H]1Cc1ccc(C(F)(F)F)cc1 [PP0175] ([NMeL]I[Sar][Sar][NPrPhe(4-CF3)][Sar][hPhe(3-Cl-4-CF3)]P[Ac5c][NMeGly(cPent)][NMeD]-{Piperazinyl(4-(3-oxetanyl))}; lactam N-11)					B (a compound having 3 or more and less than 10 is denoted as B)	B (a compound having 3 or more and less than 10 is denoted as B)
2.1	CC[C@H](C)[C@@H]1NC(=O)[C@@H]2CCCCCCc3ccc(cc3)C[C@@H](C(=O)N(C)CC(=O)N[C@@H](CCc3ccc(C(F)(F)F)c(OC)c3)C(=O)N3CC4(CC4)C[C@H]3C(=O)NC3(CC(C)(C)C3)C(=O)N(C)[C@@H](C3CCCC3)C(=O)N(C)[C@H](C(=O)N(C)C)CC(=O)N2C)N2CC/C=C\C[C@@H](C2=O)N(C)C(=O)CN(C)C1=O [PP3069]					A (a compound having 10 or more and less than 20 is denoted as A)	B (a compound having 3 or more and less than 10 is denoted as B)
